From PMC5198786 (ChemMedChem, 2016)
Several values for one entry are separate records, joined by “and”; a condition that tells them apart may be missing. Equal entries are not always repeated. Entries after “also recorded” stand apart in the source; their conditions may differ. Where two headings read alike, the source gives them in different places.

What was measured:
B. pertussis ACT = B. pertussis ACT (Bordetella pertussis, UniProt P0DKX7); assay: cell-based; format: cell-based
mAC1 = mAC1 (Homo sapiens, UniProt Q08828); assay: mAC assay, HEK293 cells stably expressing AC1; format: cell-based; settings: for % of control AC1 / effect on selectively-stimulated cAMP response at AC1 (in words): 30 µM; for % of control AC1: HEK293-AC1, stimulated with 3 µM A23187, ± S.E.M.
mAC2 = mAC2 (Homo sapiens, UniProt Q08462); assay: mAC assay, HEK293 cells stably expressing AC2; format: cell-based; settings: for % of control AC2 / effect on selectively-stimulated cAMP response at AC2 (in words): 30 µM; for % of control AC2: HEK293-AC2, stimulated with 100 nM PMA, ± S.E.M.
mAC5 = mAC5 (Homo sapiens, UniProt O95622); assay: mAC assay, HEK293 cells stably expressing AC5; format: cell-based; settings: for % of control AC5: 30 µM, HEK293-AC5, stimulated with 300 nM forskolin, ± S.E.M.
J774A.1 cells = assay: Effect on the viability of J774A.1 cells; format: cell-based, murine
edema factor (EF) = edema factor (EF) (Bacillus anthracis, UniProt P40136); assay: biochemical
[1] = read-out: IC50 ACT inhibition in J774A.1 cells

B. pertussis ACT, sequence (P0DKX7 whole entry, looked up): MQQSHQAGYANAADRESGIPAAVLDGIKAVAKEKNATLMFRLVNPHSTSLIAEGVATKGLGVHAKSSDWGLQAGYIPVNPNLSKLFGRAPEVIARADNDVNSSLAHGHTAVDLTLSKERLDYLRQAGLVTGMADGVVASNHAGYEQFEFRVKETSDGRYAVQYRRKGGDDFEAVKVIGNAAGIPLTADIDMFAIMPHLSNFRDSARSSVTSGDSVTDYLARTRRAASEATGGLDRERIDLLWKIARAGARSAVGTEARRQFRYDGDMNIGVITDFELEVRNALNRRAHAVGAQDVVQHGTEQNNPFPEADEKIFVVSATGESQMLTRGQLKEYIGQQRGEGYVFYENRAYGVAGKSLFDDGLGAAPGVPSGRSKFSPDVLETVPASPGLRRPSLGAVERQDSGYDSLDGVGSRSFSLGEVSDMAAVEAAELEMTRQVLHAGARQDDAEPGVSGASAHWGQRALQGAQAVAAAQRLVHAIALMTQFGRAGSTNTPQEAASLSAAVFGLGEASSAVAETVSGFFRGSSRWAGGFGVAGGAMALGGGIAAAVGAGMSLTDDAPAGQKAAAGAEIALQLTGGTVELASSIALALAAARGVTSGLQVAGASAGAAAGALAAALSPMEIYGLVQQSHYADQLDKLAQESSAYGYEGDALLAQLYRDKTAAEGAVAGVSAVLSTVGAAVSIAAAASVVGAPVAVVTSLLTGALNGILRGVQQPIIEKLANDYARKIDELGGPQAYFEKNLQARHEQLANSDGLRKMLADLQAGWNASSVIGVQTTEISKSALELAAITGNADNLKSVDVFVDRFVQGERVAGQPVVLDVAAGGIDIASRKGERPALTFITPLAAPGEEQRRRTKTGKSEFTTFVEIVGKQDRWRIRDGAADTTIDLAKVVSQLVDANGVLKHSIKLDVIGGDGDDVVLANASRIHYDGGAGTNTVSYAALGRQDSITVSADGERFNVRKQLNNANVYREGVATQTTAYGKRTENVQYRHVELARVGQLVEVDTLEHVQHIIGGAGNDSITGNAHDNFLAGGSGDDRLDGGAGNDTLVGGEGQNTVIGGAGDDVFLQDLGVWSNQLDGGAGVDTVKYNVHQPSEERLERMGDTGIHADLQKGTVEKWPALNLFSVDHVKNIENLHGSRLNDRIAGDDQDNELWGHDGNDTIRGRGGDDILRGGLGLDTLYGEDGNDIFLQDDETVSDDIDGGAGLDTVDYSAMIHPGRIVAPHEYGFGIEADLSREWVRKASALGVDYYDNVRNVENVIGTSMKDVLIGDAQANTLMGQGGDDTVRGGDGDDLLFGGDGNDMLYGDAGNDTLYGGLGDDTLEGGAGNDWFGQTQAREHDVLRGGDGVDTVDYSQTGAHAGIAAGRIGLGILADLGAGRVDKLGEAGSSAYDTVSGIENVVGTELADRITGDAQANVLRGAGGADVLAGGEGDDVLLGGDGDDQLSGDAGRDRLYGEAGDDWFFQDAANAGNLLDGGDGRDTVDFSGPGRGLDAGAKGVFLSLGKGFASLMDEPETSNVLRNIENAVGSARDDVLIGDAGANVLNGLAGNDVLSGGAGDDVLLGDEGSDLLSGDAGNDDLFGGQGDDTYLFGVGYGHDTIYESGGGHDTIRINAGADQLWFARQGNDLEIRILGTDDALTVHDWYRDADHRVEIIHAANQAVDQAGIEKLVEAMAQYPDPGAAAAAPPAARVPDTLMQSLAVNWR
mAC1, sequence (Q08828 whole entry): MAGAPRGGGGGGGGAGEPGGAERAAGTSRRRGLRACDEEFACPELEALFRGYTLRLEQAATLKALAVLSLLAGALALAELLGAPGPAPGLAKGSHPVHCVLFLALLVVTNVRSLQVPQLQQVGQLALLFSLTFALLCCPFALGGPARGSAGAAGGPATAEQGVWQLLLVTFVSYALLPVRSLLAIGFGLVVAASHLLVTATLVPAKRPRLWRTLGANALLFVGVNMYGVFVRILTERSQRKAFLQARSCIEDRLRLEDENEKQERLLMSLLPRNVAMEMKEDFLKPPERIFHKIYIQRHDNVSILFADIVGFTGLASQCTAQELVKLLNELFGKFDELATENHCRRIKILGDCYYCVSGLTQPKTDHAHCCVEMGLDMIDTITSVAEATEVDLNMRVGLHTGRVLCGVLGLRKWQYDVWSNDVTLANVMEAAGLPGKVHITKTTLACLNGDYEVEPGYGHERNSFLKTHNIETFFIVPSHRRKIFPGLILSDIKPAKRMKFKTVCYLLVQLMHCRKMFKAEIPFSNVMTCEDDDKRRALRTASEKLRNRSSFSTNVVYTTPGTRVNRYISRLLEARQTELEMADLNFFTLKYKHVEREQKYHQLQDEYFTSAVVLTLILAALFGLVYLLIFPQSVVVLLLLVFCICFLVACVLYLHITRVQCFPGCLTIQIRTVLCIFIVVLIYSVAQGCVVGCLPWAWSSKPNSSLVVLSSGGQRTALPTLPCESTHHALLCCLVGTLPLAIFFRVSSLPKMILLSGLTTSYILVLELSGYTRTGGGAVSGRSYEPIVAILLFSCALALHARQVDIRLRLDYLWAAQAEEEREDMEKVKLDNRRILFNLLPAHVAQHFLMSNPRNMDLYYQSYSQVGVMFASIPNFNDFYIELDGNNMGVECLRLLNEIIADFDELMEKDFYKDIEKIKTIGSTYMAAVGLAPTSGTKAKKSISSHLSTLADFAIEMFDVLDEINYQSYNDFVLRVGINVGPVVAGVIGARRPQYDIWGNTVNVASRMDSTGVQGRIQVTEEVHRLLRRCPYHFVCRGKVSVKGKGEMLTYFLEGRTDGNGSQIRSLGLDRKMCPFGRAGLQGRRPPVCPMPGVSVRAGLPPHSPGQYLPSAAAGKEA
mAC5, sequence (O95622 whole entry): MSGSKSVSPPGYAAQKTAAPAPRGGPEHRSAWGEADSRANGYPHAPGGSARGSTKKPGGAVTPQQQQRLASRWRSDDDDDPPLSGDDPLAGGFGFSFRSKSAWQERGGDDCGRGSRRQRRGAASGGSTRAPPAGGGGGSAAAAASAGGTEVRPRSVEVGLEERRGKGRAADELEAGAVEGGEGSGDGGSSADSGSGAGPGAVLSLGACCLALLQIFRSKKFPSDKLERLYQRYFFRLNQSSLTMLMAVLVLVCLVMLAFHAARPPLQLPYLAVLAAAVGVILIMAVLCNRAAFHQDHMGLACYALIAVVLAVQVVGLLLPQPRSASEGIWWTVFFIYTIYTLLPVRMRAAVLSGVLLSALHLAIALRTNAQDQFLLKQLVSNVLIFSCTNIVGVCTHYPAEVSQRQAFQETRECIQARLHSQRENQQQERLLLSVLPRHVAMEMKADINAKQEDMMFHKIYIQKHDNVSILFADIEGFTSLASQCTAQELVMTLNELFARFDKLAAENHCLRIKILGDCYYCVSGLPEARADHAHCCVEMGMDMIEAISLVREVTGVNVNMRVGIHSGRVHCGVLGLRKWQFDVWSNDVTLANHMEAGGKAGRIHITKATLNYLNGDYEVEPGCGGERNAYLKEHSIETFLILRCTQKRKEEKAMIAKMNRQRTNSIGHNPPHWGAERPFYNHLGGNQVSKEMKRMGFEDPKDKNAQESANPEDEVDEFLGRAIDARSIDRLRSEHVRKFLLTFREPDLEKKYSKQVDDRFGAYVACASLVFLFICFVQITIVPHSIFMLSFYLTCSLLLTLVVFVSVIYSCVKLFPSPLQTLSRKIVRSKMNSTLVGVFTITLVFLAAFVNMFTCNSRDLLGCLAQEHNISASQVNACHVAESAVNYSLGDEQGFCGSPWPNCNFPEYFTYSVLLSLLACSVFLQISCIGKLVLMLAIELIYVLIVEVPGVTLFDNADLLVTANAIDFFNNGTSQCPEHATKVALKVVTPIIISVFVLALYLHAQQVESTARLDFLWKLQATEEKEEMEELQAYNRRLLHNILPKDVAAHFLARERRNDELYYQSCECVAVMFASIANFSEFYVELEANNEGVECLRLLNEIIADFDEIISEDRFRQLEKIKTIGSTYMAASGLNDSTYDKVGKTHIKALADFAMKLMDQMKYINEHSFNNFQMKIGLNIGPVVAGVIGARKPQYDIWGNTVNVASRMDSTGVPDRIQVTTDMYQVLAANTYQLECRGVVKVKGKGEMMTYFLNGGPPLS
edema factor (EF), sequence (P40136 whole entry, looked up): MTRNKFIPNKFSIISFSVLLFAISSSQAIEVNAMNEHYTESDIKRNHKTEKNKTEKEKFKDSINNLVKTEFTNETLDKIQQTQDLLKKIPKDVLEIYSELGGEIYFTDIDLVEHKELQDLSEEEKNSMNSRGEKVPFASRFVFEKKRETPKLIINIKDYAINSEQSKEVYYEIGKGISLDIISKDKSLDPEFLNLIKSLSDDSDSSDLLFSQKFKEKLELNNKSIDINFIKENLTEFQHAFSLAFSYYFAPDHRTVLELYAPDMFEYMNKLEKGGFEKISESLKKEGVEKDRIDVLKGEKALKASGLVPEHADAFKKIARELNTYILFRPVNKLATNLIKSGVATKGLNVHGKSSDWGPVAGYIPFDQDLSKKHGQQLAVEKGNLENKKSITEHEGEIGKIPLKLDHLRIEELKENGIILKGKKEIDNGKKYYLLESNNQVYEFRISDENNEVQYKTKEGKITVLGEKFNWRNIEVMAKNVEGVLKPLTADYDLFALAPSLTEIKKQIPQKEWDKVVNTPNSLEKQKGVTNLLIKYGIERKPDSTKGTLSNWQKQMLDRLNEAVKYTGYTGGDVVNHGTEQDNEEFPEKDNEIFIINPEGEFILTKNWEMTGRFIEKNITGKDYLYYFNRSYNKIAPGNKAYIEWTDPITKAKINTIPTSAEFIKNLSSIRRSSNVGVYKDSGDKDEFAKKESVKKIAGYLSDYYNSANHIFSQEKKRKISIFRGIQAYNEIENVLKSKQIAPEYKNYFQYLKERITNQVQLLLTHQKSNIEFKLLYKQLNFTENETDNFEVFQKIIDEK

Nc1ccc(Cl)cc1C(=O)NC(CO)Cn1cnc2c(N)ncnc21 (stereo not shown) [Compound 6]
IC50 (B. pertussis ACT; [1]): > 15 µM
% of control AC1 (mAC1): 163±34%
% of control AC2 (mAC2): 161±16%
% of control AC5 (mAC5): 98±14%

Nc1ncnc2c1ncn2CC(CO)NC(=O)Nc1ccc(Cl)cc1C(=O)O (stereo not shown) [Compound 7, 2-(3-(1-(6-amino-9H-purin-9-yl)-3-hydroxypropan-2-yl)ureido)-5-chlorobenzoic acid]
IC50 (B. pertussis ACT): > 15 µM
remaining activity at 30 µM (mAC1; HEK293, read-out: % of control AC1): 178 ± 31%
remaining activity at 30 µM (mAC2; HEK293, read-out: % of control AC2): 164 ± 23%
remaining activity at 30 µM (mAC5; HEK293, read-out: % of control AC5): 110 ± 16%

CC(C)OC(=O)[C@H](Cc1ccccc1)NP(=O)(COCC(Cn1cnc2c(N)ncnc21)NC(=O)c1cc(Cl)ccc1N)N[C@@H](Cc1ccccc1)C(=O)OC(C)C (stereo partly drawn) [Compound 14, Bis(L-phenylalanineisopropyl ester) prodrug of ((3-(6-amino-9H-purin-9yl)-2-N-(5-chloroanthraniloyl)propoxy)methyl)phosphonic acid]
IC50 (B. pertussis ACT; [1]): > 15 µM
effect on selectively-stimulated cAMP response at AC1 (in words) (mAC1): slightly potentiated
% of control AC1 (mAC1): 118±12%
effect on selectively-stimulated cAMP response at AC2 (in words) (mAC2): slightly potentiated
% of control AC2 (mAC2): 172±34%
% of control AC5 (mAC5): 121±23%

Nc1ccc(Cl)cc1C(=O)OCC(CO)Cn1cnc2c(N)ncnc21 (stereo not shown) [Compound 20, 9-(3-O-(5-Chloroanthraniloyl)-2-(hydroxymethyl)propyl)adenine]
IC50 (B. pertussis ACT; [1]): > 15 µM
% of control AC1 (mAC1): 122±15%
% of control AC2 (mAC2): 146±10%
% of control AC5 (mAC5): 114±18%

Nc1ccc(Cl)cc1C(=O)NCC(CO)Cn1cnc2c(N)ncnc21 (stereo not shown) [Compound 22, 9-(3-N-(5-Chloroanthraniloyl)-2-(hydroxymethyl)propyl)adenine]
IC50 (B. pertussis ACT; [1]): > 15 µM
% of control AC1 (mAC1): 156±23%
% of control AC2 (mAC2): 149±26%
% of control AC5 (mAC5): 101±5%

CC(C)OC(=O)[C@H](Cc1ccccc1)NP(=O)(COCC(COC(=O)c1cc(Cl)ccc1N)Cn1cnc2c(N)ncnc21)N[C@@H](Cc1ccccc1)C(=O)OC(C)C (stereo partly drawn) [Compound 26, Bis(L-phenylalanineisopropyl ester) prodrug of ((3-(6-amino-9H-purin-9yl)-2-(5-chloroanthraniloyloxymethyl)propoxy)methyl)phosphonic acid]
IC50 (B. pertussis ACT; [1]): 12 µM and 12.1 µM
cytotoxic effect in J774A.1 cells (J774A.1 cells; 10 µM for 5h): no cytotoxic effect; also recorded: no observed cytotoxic effects
Viability (J774A.1 cells; 10 µM, 5 h, versus untreated control): 110%
% of control AC1 (mAC1): 94±10%
% of control AC2 (mAC2): 149±27%
% of control AC5 (mAC5): 97±11%

CC(C)OC(=O)[C@H](Cc1ccccc1)NP(=O)(COCC(CNC(=O)c1cc(Cl)ccc1N)Cn1cnc2c(N)ncnc21)N[C@@H](Cc1ccccc1)C(=O)OC(C)C (stereo partly drawn) [Compound 29, Bis(L-phenylalanineisopropyl ester) prodrug of ((3-(6-amino-9H-purin-9yl)-2-(5-chloroanthraniloylaminomethyl)propoxy)methyl)phosphonic acid]
IC50 (B. pertussis ACT; [1]): > 15 µM
effect on selectively-stimulated cAMP response at AC1 (in words) (mAC1): slightly potentiated
% of control AC1 (mAC1): 189±15%
effect on selectively-stimulated cAMP response at AC2 (in words) (mAC2): slightly potentiated
% of control AC2 (mAC2): 193±48%
% of control AC5 (mAC5): 118±18%

Nc1ncnc2c1ncn2CCOCP(=O)(O)OP(=O)(O)OP(=O)(O)O [PMEApp, Adefovir diphosphate]
IC50 (edema factor (EF)): 0.0115 ± 0.0026 µM

Nc1ncnc2c1ncn2C1CCCO1 (stereo not shown) [SQ22536, reference compound]
% of control AC2 (mAC2): 84±5%
% of control AC5 (mAC5): 64±1%
